Experiment [1] deals with Coagulation factor XIa (Homo sapiens (Human), UniProt P03951). Briefly: Factor XIa Assay. Format: biochemical. Conditions: human factor XIa 0.04 nM, substrate GPR-AFC, 30 min pre-incubation at 25° C., pH 7.4; read-out: FXIa IC50. Here is the method:
(§1) The effectiveness of a compound of the present invention as an inhibitor of Coagulation factor XIa can be determined using a relevant purified serine protease, and an appropriate synthetic substrate. The rate of hydrolysis of the chromogenic or fluorogenic substrate by the relevant serine protease was measured both in the absence and presence of compounds of the present invention. Assays were conducted at rt or at 37° C. […] A decrease in the rate of fluorescence change in the presence of inhibitor is indicative of enzyme inhibition. Such methods are known to one skilled in the art. The results of this assay are expressed as the half-maximal inhibitory concentrations (IC50), or the inhibitory constant, Ki.
Compounds were pre-incubated for 30 min at 25° C. with human (0.04 nM) factor XIa in 50 mM HEPES buffer with 150 mM sodium chloride, 5 mM calcium chloride, 0.1% PEG 8000, pH 7.4. factor XIa enzymatic activity was determined by addition of the substrate glycine-proline-arginine-7-amido-4-trifluoromethylcoumarin (GPR-AFC) and measurement of the fluorescence at 400/505 nm after a 60 min incubation at 25° C. The % inhibition for each data point was calculated from the data and analyzed using the log (inhibitor) vs. response four parameters equation to determine the half-maximal inhibitory concentrations (IC50). The IC50 were converted to equilibrium inhibitory constants (Ki) using the Cheng-Prusoff equation.

The target of experiment [2] is Human plasma kallikrein (Homo sapiens (Human), UniProt P03952). The experiment is described as follows: Plasma Kallikrein Assay. Format: biochemical. The settings on record: purified Human plasma kallikrein 0.5 nM, substrate Acetyl-K-P-R-AFC, pH 7.4; read-out: PKal IC50. The procedure: as §1, with “plasma kallikrein” for “Coagulation factor XIa”
Plasma kallikrein determinations were made in 50 mM HEPES buffer at pH 7.4 containing 150 mM NaCl, 5 mM CaCl2, and 0.1% PEG 8000 (polyethylene glycol; Fisher Scientific). Determinations were made using purified Human plasma kallikrein at a final concentration of 0.5 nM (Enzyme Research Laboratories) and the synthetic substrate, Acetyl-K-P-R-AFC (Sigma #C6608) at a concentration of […].
Activity assays were performed by diluting a stock solution of substrate at least tenfold to a final concentration ≤0.2 Km into a solution containing enzyme or enzyme equilibrated with inhibitor. Times required to achieve equilibration between enzyme and inhibitor were determined in control experiments. The reactions were performed under linear progress curve conditions and fluorescence increase measured at 405 Ex/510 Em nm. Values were converted to percent inhibition of the control reaction (after subtracting 100% Inhibition value). IC50 was determined by inflection point from a four parameter logistic curve fit. Ki was calculated using the Cheng Prusoff equation, Ki=IC50/(1+[S]/Km)).

The IC50 is the concentration at which inhibition is half-maximal.

SMILES strings stand for the structures.

Coagulation factor XIa, sequence (P03951 388-625 limits assumed): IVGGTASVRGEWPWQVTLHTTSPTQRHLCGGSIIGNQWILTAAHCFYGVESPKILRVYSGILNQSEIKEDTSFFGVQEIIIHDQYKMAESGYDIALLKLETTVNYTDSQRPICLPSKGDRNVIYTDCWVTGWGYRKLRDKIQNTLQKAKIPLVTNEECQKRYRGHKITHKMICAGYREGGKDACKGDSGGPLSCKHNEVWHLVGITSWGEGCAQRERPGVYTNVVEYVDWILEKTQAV
Coagulation factor XIa, sequence (P03951 19-387 partner limits assumed): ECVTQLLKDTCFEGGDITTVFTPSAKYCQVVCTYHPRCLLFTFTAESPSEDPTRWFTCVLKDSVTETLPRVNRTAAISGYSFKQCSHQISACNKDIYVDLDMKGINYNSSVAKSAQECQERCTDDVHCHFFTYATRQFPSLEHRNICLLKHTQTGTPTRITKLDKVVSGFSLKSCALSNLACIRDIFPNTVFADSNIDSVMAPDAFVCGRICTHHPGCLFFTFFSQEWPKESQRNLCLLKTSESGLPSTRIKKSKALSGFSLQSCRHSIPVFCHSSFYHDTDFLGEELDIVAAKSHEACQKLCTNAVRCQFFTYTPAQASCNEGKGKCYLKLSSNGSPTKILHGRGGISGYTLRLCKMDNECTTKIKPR
Human plasma kallikrein, sequence (P03952 391-638 limits assumed): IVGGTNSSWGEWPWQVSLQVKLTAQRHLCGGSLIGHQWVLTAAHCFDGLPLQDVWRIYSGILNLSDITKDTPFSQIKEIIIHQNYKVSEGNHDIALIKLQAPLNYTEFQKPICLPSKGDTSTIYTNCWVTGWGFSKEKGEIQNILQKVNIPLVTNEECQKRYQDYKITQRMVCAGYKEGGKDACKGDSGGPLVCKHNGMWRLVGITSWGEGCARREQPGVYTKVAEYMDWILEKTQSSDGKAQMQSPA
Human plasma kallikrein, sequence (P03952 20-390 partner limits assumed): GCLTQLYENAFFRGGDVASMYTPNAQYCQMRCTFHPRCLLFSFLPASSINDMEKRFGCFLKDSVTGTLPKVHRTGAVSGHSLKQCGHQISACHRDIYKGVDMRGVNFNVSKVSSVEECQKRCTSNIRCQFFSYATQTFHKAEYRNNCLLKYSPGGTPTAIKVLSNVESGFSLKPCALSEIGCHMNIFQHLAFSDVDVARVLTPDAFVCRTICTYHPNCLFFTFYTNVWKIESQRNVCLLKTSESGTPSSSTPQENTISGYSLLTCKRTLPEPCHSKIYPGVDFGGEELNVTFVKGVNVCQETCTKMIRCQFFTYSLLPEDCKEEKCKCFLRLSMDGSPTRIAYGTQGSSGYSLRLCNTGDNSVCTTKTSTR

As for `CN1CCN(c2ccc(CNC(=O)c3cncc(N4CC[C@]5(C4)OC(=O)Nc4ccc(Cl)c(F)c45)n3)cn2)CC1` [Example 43, (S)-6-(6-Chloro-5-fluoro-2-oxo-1,2-dihydrospiro[benzo[d][1,3]oxazine-4,3′-pyrrolidin]-1′-yl)-N-((6-(4-methylpiperazin-1-yl)pyridin-3-yl)methyl)pyrazine-2-carboxamide], the figures for the IC50 in experiment [1] and in experiment [2] were 10 µM and 1.7 nM, respectively.
Consider `Cc1cnn(Cc2ccc(CNC(=O)c3cnnc(N4CC[C@]5(C4)OC(=O)Nc4ccc(Cl)c(F)c45)c3)cc2)c1` [Example 23, (S)-6-(6-Chloro-5-fluoro-2-oxo-1,2-dihydrospiro[benzo[d][1,3]oxazine-4,3′-pyrrolidin]-1′-yl)-N-(4-((4-methyl-1H-pyrazol-1-yl)methyl)benzyl)pyridazine-4-carboxamide], for which the IC50 amounted to 10 µM in experiment [1] and 0.5 nM in experiment [2].
Turning to `Cc1cnn(Cc2ccc(CNC(=O)c3ccnc(N4CC[C@]5(C4)OC(=O)Nc4ccc(Cl)c(F)c45)n3)cc2)c1` [Example 24, (S)-2-(6-Chloro-5-fluoro-2-oxo-1,2-dihydrospiro[benzo[d][1,3]oxazine-4,3′-pyrrolidin]-1′-yl)-N-(4-((4-methyl-1H-pyrazol-1-yl)methyl)benzyl)pyrimidine-4-carboxamide], the IC50 in experiment [1] is 10 µM; in experiment [2], 13.6 nM.
For `N#CC1(F)CN(Cc2ccc(CNC(=O)c3cnnc(N4CC[C@]5(C4)OC(=O)Nc4ccc(Cl)c(F)c45)c3)cc2)C1` [Example 50, (S)-6-(6-Chloro-5-fluoro-2-oxo-1,2-dihydrospiro[benzo[d][1,3]oxazine-4,3′-pyrrolidin]-1′-yl)-N-(4-((3-cyano-3-fluoroazetidin-1-yl)methyl)benzyl)pyridazine-4-carboxamide] the same measures were 10 µM and 26.6 nM.
Turning to `O=C1Nc2ccc(Cl)c(F)c2[C@]2(CCN(c3cncc4c3CCN(Cc3ccc(Cn5ccccc5=O)cc3)C4)C2)O1` [Example 51, (S)-6-Chloro-5-fluoro-1′-(7-(4-((2-oxopyridin-1(2H)-yl)methyl)benzyl)-5,6,7,8-tetrahydro-2,7-naphthyridin-4-yl)spiro[benzo[d][1,3]oxazine-4,3′-pyrrolidin]-2(1H)-one], the IC50 in experiment [1] is 10 µM; in experiment [2] it was 45.9 nM.
In the case of `O=C1Nc2ccc(Cl)c(F)c2[C@]2(CCN(c3cncc(C(=O)NCc4ccc(N5CCC5)nc4)n3)C2)O1` [Example 37, (S)-N-((6-(Azetidin-1-yl)pyridin-3-yl)methyl)-6-(6-chloro-5-fluoro-2-oxo-1,2dihydrospiro[benzo[d][1,3]oxazine-4,3′-pyrrolidin]-1′-yl)pyrazine-2-carboxamide], the IC50 was determined as 10 µM in experiment [1] and 44.4 nM in experiment [2].
As for `C[C@H]1CCN(c2ccc(CNC(=O)c3cncc(N4CC[C@]5(C4)OC(=O)Nc4ccc(Cl)c(F)c45)n3)cn2)C1` [Example 1, (S)-6-(6-Chloro-5-fluoro-2-oxo-1,2-dihydrospiro[benzo[d][1,3]oxazine-4,3′-pyrrolidin]-1′-yl)-N-((6-((S)-3-methylpyrrolidin-1-yl)pyridin-3-yl)methyl)pyrazine-2-carboxamide], the IC50 was found to be 10 µM in experiment [1] and 19.3 nM in experiment [2].
Regarding `Cc1cnn(Cc2ccc(CNC(=O)c3cc(N4CC[C@]5(C4)OC(=O)Nc4ccc(Cl)c(F)c45)ccn3)cc2)c1` [Example 25, (S)-4-(6-Chloro-5-fluoro-2-oxo-1,2-dihydrospiro[benzo[d][1,3]oxazine-4,3′-pyrrolidin]-1′-yl)-N-(4-((4-methyl-1H-pyrazol-1-yl)methyl)benzyl)picolinamide], the IC50 in experiment [1] was 10 µM; in experiment [2], 16.5 nM.
With `CC(C)N(C)Cc1ccc(CNC(=O)c2cnnc(N3CC[C@]4(C3)OC(=O)Nc3ccc(Cl)c(F)c34)c2)cc1` [Example 48, (S)-6-(6-Chloro-5-fluoro-2-oxo-1,2-dihydrospiro[benzo[d][1,3]oxazine-4,3′-pyrrolidin]-1′-yl)-N-(4-((isopropyl(methyl)amino)methyl)benzyl)pyridazine-4-carboxamide], the IC50 in experiment [1] worked out at 10 µM; in experiment [2], 5.9 nM.
For `C[C@H]1CCN(c2ccc(CNC(=O)c3cncc(N4CC[C@]5(C4)OC(=O)Nc4ccc(Cl)c(F)c45)c3)cn2)C1` [Example 3, (S)-5-(6-Chloro-5-fluoro-2-oxo-1,2-dihydrospiro[benzo[d][1,3]oxazine-4,3′-pyrrolidin]-1′-yl)-N-((6-((S)-3-methylpyrrolidin-1-yl)pyridin-3-yl)methyl)nicotinamide], the IC50 in experiment [1] stood at 10 µM; in experiment [2] it was 9.5 nM.
For `Cc1cnn(Cc2ccc(CNC(=O)c3cncc(N4CC[C@]5(C4)OC(=O)Nc4ccc(Cl)c(F)c45)n3)cc2)c1` [Example 18, (S)-6-(6-Chloro-5-fluoro-2-oxo-1,2-dihydrospiro[benzo[d][1,3]oxazine-4,3′-pyrrolidin]-1′-yl)-N-(4-((4-methyl-1H-pyrazol-1-yl)methyl)benzyl)pyrazine-2-carboxamide] the same measures were 10 µM and 12.8 nM.
For `O=C1Nc2ccc(Cl)c(F)c2[C@]2(CCN(c3cc(C(=O)NCc4ccc(N5CCC(C(F)(F)F)C5)nc4)cnn3)C2)O1` (stereo in doubt) [Example 9, (S)-6-(6-Chloro-5-fluoro-2-oxo-1,2-dihydrospiro[benzo[d][1,3]oxazine-4,3′-pyrrolidin]-1′-yl)-N-((6-(3-(trifluoromethyl)pyrrolidin-1-yl)pyridin-3-yl)methyl)pyridazine-4-carboxamide], in that order: 10 µM and 7.5 nM.
For `CN1CC(F)(F)C[C@H]1c1ccc(CNC(=O)c2cnnc(N3CCC4(C3)OC(=O)Nc3ccc(Cl)c(F)c34)c2)cc1` (stereo partly drawn) [Example 12, (S)-6-(6-Chloro-5-fluoro-2-oxo-1,2-dihydrospiro[benzo[d][1,3]oxazine-4,3′-pyrrolidin]-1′-yl)-N-(4-(4,4-difluoro-1-methylpyrrolidin-2-yl)benzyl)pyridazine-4-carboxamide], in that order: 10 µM and 39.6 nM.
Take `CCC(C)NCc1ccc(CNC(=O)c2cnnc(N3CC[C@]4(C3)OC(=O)Nc3ccc(Cl)c(F)c34)c2)cc1` (stereo partly drawn) [Example 45, N-(4-((sec-Butylamino)methyl)benzyl)-6-((S)-6-chloro-5-fluoro-2-oxo-1,2-dihydrospiro[benzo[d][1,3]oxazine-4,3′-pyrrolidin]-1′-yl)pyridazine-4-carboxamide]: the 50% inhibitory concentration (IC50) in experiment [1] turned out to be 10 µM; in experiment [2], 15.8 nM.
In the case of `O=C1Nc2ccc(Cl)c(F)c2[C@]2(CCN(c3cncc(C(=O)NCc4ccc(N5CCCC5)nc4)n3)C2)O1` [Example 2, (S)-6-(6-Chloro-5-fluoro-2-oxo-1,2-dihydrospiro[benzo[d][1,3]oxazine-4,3′-pyrrolidin]-1′-yl)-N-((6-(pyrrolidin-1-yl)pyridin-3-yl)methyl)pyrazine-2-carboxamide], the IC50 in experiment [1] was determined as 10 µM; in experiment [2], 6.8 nM.
As to `C[C@H]1CCN(c2ccc(CNC(=O)c3cnnc(N4CC[C@]5(C4)OC(=O)Nc4ccc(Cl)c(F)c45)c3)cn2)C1` [Example 4, (S)-6-(6-Chloro-5-fluoro-2-oxo-1,2-dihydrospiro[benzo[d][1,3]oxazine-4,3′-pyrrolidin]-1′-yl)-N-((6-((S)-3-methylpyrrolidin-1-yl)pyridin-3-yl)methyl)pyridazine-4-carboxamide], the IC50 in experiment [1] is 7.44 µM; in experiment [2], 1.2 nM.
On to `O=C1Nc2ccc(Cl)c(F)c2[C@]2(CCN(c3cc(C(=O)NCc4ccc(CN5CC(F)C5)cc4)cnn3)C2)O1` [Example 47, (S)-6-(6-chloro-5-fluoro-2-oxo-1,2-dihydrospiro[benzo[d][1,3]oxazine-4,3′-pyrrolidin]-1′-yl)-N-(4-((3-fluoroazetidin-1-yl)methyl)benzyl)pyridazine-4-carboxamide], for which the figures for the IC50 in experiment [1] and in experiment [2] were 10 µM and 13.8 nM, respectively.

Source of the values: patent US20240190892A1, “PLASMA KALLIKREIN INHIBITORS” (Merck Sharp & Dohme LLC, priority 2021, published 2024).
